# Experiments:
# Swiss albino mice (CD-1) [1] = conditions: i.p., CD-1 mice, 30 min; racemates, disclosed in publications; cited from earlier work
# Swiss albino mice (CD-1) [2] = conditions: i.p., CD-1 mice, 30 min; racemates, disclosed in publications; cited from earlier work; remark: listed apart in the source
# mice [3] = experiment: oxaliplatin-induced neuropathic pain model, von Frey test; format: in vivo, mouse
# Method: (§1) The study was conducted on male Swiss albino mice (CD-1) weighing 18-26 g. All procedures were carried out in accordance with applicable Polish and international guidelines on the ethics of animal testing, after obtaining appropriate institutional approval. […] These studies were carried out on individuals of male C57 black mice (Charles River) and individuals of male Sprague-Dawley rats. All tests were carried out based on the procedures described in the specialist literature. […] The study group consisted of 8-10 animals. […] To perform a statistical evaluation of the results, one-way analysis of variance (ANOVA) followed by Dunnett's post hoc test (multiple comparison test) were used. The values were considered statistically significant if p<0.05.
# Sprague-Dawley rats [4] = experiment: MES test in rats, ETSP; format: in vivo; conditions: Rattus norvegicus, ip, 0.5 h, i.p., tested 30 min after administration, 95% confidence limits in brackets
# Method: (§2) The study was conducted on male Swiss albino mice (CD-1) weighing 18-26 g. All procedures were carried out in accordance with applicable Polish and international guidelines on the ethics of animal testing, after obtaining appropriate institutional approval. […] These studies were carried out on individuals of male C57 black mice (Charles River) and individuals of male Sprague-Dawley rats. All tests were carried out based on the procedures described in the specialist literature.
# (§3) Screening was performed on groups of 4-8 mice or 4-8 rats. The median effective dose (ED50) in a given test was estimated based on the results obtained in 3-4 groups of animals consisting of at least 6 individuals.
# (§4) To perform a statistical evaluation of the results, one-way analysis of variance (ANOVA) followed by Dunnett's post hoc test (multiple comparison test) were used. The values were considered statistically significant if p<0.05.
# human liver microsomes = experiment: metabolic stability in human liver microsomes; format: in vitro ADME; conditions: 120 minutes incubation, NADPH cofactor
# Method: The metabolic stability study was performed using human liver microsomes purchased from Sigma-Aldrich (St. Louis, MO, USA).
# [5] = tested on: black C57 mice (Charles River); experiment: corneal kindled seizure model, ETSP; format: in vivo; conditions: Mus musculus, ip, 1 h, i.p., tested 60 min after administration
# Method: as §2, §3, §4
# [6] = tested on: neurons derived from human neuroblastoma SH-SY5Y cells; experiment: neurotrophic activity on human neurons, MTT test; conditions: 48 hours; for viability of human neurons under standard conditions: 0.1 to 100 μg/ml; for concentrations from which the compound acted trophically (eliminating the effect of lack of B27 supplement): trophic stress (B27 removed)
# HaCaT cells = experiment: cytotoxic activity, MTT assay; format: cell-based; conditions: Homo sapiens, 72 hours incubation, mean ± SD
# From the text: MTT assay. […] The IC50 value was estimated using CompuSyn version 1.0.
# [7] = tested on: black C57 mice (Charles River); experiment: 6 Hz (44 mA) test, ETSP; format: in vivo; conditions: Mus musculus, ip, 1 h, i.p., tested 60 min after administration
# Method: as §2, §3, §4
# Sprague-Dawley rats [8] = experiment: lamotrigine resistant amygdala kindled seizure model; format: in vivo, rat; conditions: 70 mg/kg i.p., 30 min, 5 rats tested
# Method: as §2, §3
# CYP2C9 = CYP2C9 (Homo sapiens, UniProt P11712); conditions: 10 μM
# Method: (§5) The studies were conducted using commercial luminescence tests CYP3A4 P450-Glo™, CYP2D6 P450-Glo™ and CYP2C9 P450-Glo™ from Promega (Madison, WI, USA).
# (§6) The studies were conducted using commercial luminescence tests CYP3A4 P450-Glo™, CYP2D6 P450-Glo™ and CYP2C9 P450-Glo™ from Promega (Madison, WI, USA). The CYP isoforms selected for study are responsible for the metabolism of approximately 60-70% of the drugs available and their stimulation or inhibition determines the majority of metabolic drug interactions.
# mice [9] = experiment: formalin test; format: in vivo, mouse; conditions: vs vehicle control
# Method: as §1
# mice [10] = experiment: four plates test (Aron test); format: in vivo, mouse; conditions: vs vehicle control
# Method: as §1
# HepG2 cell line = experiment: hepatotoxicity, MTS test; conditions: 72 hours incubation, concentration range 1-100 μM
# mice [11] = experiment: forced swim test (Porsolt test); format: in vivo, mouse; conditions: 30, 45 and 60 mg/kg i.p.; vs vehicle control
# Method: as §1
# in vivo = conditions: male, C57 black, mouse, ip
# Method: as §2
# (§7) These studies were also carried out in rats according to the methodology described by ETSP. The toxic dose (TD50) in the rotarod test was estimated based on the results obtained in 3-4 groups of animals consisting of at least 6 individuals.
# as §4
# HEK-293 cell line = experiment: cytotoxic activity, MTS test; conditions: 72 hours incubation, concentration range 1-100 μM
# mice [12] = experiment: streptozotocin-induced model of painful diabetic neuropathy, von Frey test; format: in vivo, mouse; conditions: 3 weeks after streptozotocin
# Method: as §1
# CYP3A4 = molecular target: T1, CYP3A4 (Homo sapiens, UniProt P08684); experiment: CYP3A4 P450-Glo luminescence test; format: in vitro ADME; conditions: 10 μM
# T1 construct: purchased Promega (Madison, WI, USA)
# Method: as §5, §6
# mice [13] = experiment: neuroprotection in pilocarpine-induced status epilepticus (Fluoro-Jade B); conditions: PILO 300 mg/kg i.p.; dose of compound determined in the 6 Hz (32 mA) test; five mice shown (B-F)
# CYP2D6 = molecular target: T2, CYP2D6 (Homo sapiens, UniProt P10635); experiment: CYP2D6 P450-Glo luminescence test; format: in vitro ADME; conditions: 10 μM
# T2 construct: purchased Promega (Madison, WI, USA)
# Method: as §5, §6
# mice [14] = experiment: spontaneous locomotor activity test; format: in vivo, mouse
# Method: The assessment of the influence of the tested compounds on the spontaneous locomotor activity of animals (assessment of the sedative or activating effect) was carried out in accordance with the methodology described in the scientific literature (Mogilski et al. Inflamm. Res. 2017, 66, 79-95). The study group consisted of 10 animals.
# Swiss albino mice (CD-1) [15] = experiment: 6 Hz (44 mA) psychomotor seizure test; format: in vivo; conditions: Mus musculus, ip, 0.5 h; i.p., CD-1 mice, tested 30 min after administration
# [16] = rotarod test (motor coordination); conditions: male, Swiss albino (CD-1), mouse, in vivo, ip
# Method: as §2, §7, §4
# patients = conditions: monotherapy; cited from earlier work
structure (smiles),measurement,setting,value
"CC(C(=O)NCc1ccccc1)N1C(=O)CCC1=O (racemic) [(RS)-1, (2RS)—N-benzyl-2-(2,5-dioxopyrrolidin-1-yl)propenamide]",ED50 6 Hz (44 mA),Swiss albino mice (CD-1) [1],75.41 mg/kg
"CC(C(=O)NCc1ccccc1F)N1C(=O)CCC1=O (racemic) [(RS)-2, (2RS)-2-(2,5-dioxopyrrolidin-1-yl)-N-(2-fluorobenzyl)propanamide]",TD50 Rotarod test,Swiss albino mice (CD-1) [2],300.9 mg/kg
"C[C@H](C(=O)NCc1ccccc1)N1C(=O)CCC1=O [Compound 1, (2R)—N-benzyl-2-(2,5-dioxopyrrolidin-1-yl)propanamide]",pain threshold (mechanical stimulus),mice [3]; 30 mg/kg i.p.,increased the pain threshold only in the early phase
same,pain threshold (mechanical stimulus),"mice [3]; 60 mg/kg and 90 mg/kg i.p., early (3 h) and late (7 days) phase, vs measurement before compound",led to an increase in pain threshold at a dose-dependent manner
same,ED50,Sprague-Dawley rats [4],34.9 mg/kg
same,metabolites on UPLC chromatogram of reaction mixture,human liver microsomes,no metabolites appeared
same,ED50,[5],38.1 mg/kg
same,viability of human neurons under standard conditions,[6],did not affect the viability
same,concentrations from which the compound acted trophically (eliminating the effect of lack of B27 supplement),[6],≥ 1 µg/mL
same,IC50,HaCaT cells,239.8 ± 0.6 µM
same,ED50,[7],69.9 mg/kg
same,Number of protected rats,Sprague-Dawley rats [8],Number of protected rats: 3
same,protection,Sprague-Dawley rats [8],(protection—60%)
same,effect on CYP2C9 activity,CYP2C9,"small, statistically significant (p<0.05) inhibition"
same,"nociceptive response time, second phase (tonic inflammatory pain)","mice [9]; i.p., 30, 60 and 90 mg/kg",statistically significantly shortened the time of nociceptive response
same,"nociceptive response time, first phase (acute pain)","mice [9]; i.p., all doses, statistically significant at 60 and 90 mg/kg",reduced the nociceptive response time
same,number of electrically punished plate crossings,mice [10]; 30 mg/kg i.p.,did not result in a statistically significant difference
same,number of electrically punished plate crossings,mice [10]; 60 mg/kg and 90 mg/kg i.p.,statistically significantly increased the number of electrically punished plate crossings
same,effect on cell viability,HepG2 cell line,did not show a statistically significant effect
same,immobility time,mice [11],statistically significantly shortened the immobility time
same,TD50 at 60 min,in vivo,> 150 mg/kg
same,effect on cell viability,HEK-293 cell line,did not show a statistically significant effect
same,pain threshold (mechanical stimulus),mice [12]; 90 mg/kg i.p.,increased the pain threshold to the values observed before the induction of streptozotocin diabetes
same,pain threshold (mechanical stimulus),"mice [12]; 30, 60 and 90 mg/kg i.p., vs measurement before compound",led to an increase in the pain threshold in a statistically significant and dose-dependent manner
same,effect on CYP3A4 activity,CYP3A4,no effect
same,neuroprotective effect after PILO-induced SE (neurodegenerative changes),mice [13],a protective effect was obtained for four mice
same,effect on CYP2D6 activity,CYP2D6,no effect
same,number of light beams interruptions during 30 minutes (spontaneous locomotor activity),"mice [14]; 30, 60 and 90 mg/kg i.p.",statistically significantly increased the number of light beams interruptions
"C[C@H](C(=O)NCc1ccccc1F)N1C(=O)CCC1=O [Compound 2, (2R)-2-(2,5-dioxopyrrolidin-1-yl)-N-(2-fluorobenzyl)propanamide]",ED50,Swiss albino mice (CD-1) [15],37.2 mg/kg
same,viability of human neurons under standard conditions,[6],did not affect the viability
same,concentrations from which the compound acted trophically (eliminating the effect of lack of B27 supplement),[6],≥ 0.1 µg/mL
same,TD50 at 30 min,[16],299 mg/kg
same,spontaneous locomotor activity,mice [14]; 90 mg/kg i.p.,statistically significant increase in spontaneous locomotor activity
"COc1cccc2c1C(=O)c1c(O)c3c(c(O)c1C2=O)C[C@@](O)(C(=O)CO)C[C@@H]3O[C@H]1C[C@H](N)[C@H](O)[C@H](C)O1 [Doxorubicin, reference compound]",IC50,HaCaT cells,0.23 ± 0.03 µM
NCC1(CC(=O)O)CCCCC1 [gabapentin],"sedative effect, share of patients",patients,approx. 9 % of patients
Nc1nnc(-c2cccc(Cl)c2Cl)c(N)n1 [lamotrigine],"sedative effect, share of patients",patients,approx. 10 % of patients
CC[C@@H](C(N)=O)N1CCCC1=O [levetiracetam],"sedative effect, share of patients",patients,approx. 20 % of patients
CCC1(c2ccccc2)C(=O)NC(=O)NC1=O [phenobarbital],"sedative effect, share of patients",patients,approx. 39 % of patients
O=C1NC(=O)C(c2ccccc2)(c2ccccc2)N1 [phenytoin],"sedative effect, share of patients",patients,approx. 32 % of patients

# Source: US12331019B2, “Modified amino acid derivatives for the treatment of neurological diseases and selected psychiatric disorders” (Uniwersytet Jagiellonski, priority 2019, dated 2025)
